Earlier results in patent publication US9050341B2, “Methods of treating drug resistant and other tumors by administering 6,7-dialkoxy quinazoline derivatives” (NATCO PHARMA LIMITED, priority 2009, dated 2015).
Where a name gives a salt, the structure may show the parent alone.

Conditions: beagle dogs; source not stated; cited from earlier work

Compound: C#Cc1cccc(Nc2ncnc3cc(OCCOC)c(OCCOC)cc23)c1 [Erlotinib HCl, N-(3-Ethylnylphenyl)-6,7-bis(2-methoxyethoxy)-4-quinazolinamine]
- no observed adverse effect level (NOAEL), corresponding value: 5 mg/kg b.wt/day
